Source: patent US20160158200A1, “Combinations of Hepatitis C Virus Inhibitors” (priority 2013, published 2016)

tested on: HCV genotype-1a variant with glutamine 30 changed to glutamate in the NS5A protein; format: cell-based; conditions: test compound titrated with BMS-790052 fixed at 200 nM; genotype 1a Q30E replicon
In short: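 Synergy was assessed by combining several fixed amounts of an NS5A-targeting compound with a titration of the second compound of interest.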

SMILES | Fold-Synergistic 1a (Q30E) [fold]
CC(C)(C)[C@H](NC(=O)C1CCC(F)(F)CC1)c1ncc(C#Cc2ccc(C#Cc3cnc([C@@H](NC(=O)C4CCC(F)(F)CC4)C(C)(C)C)[nH]3)cc2)[nH]1 [Compound B60] | >100
CC(C)(C)[C@H](NC(=O)C1(NC(=O)CC(F)(F)F)CCCCC1)c1nc(-c2ccc(-c3ccc(-c4c[nH]c([C@@H](NC(=O)C5(NC(=O)CC(F)(F)F)CCCCC5)C(C)(C)C)n4)cc3)cc2)c[nH]1 [Compound W-255] | >100
CC(C)[C@H](NC(=O)CC12CC3CC(CC(C3)C1)C2)c1ncc(-c2ccc(-c3ccc(-c4cnc([C@@H](NC(=O)CC56CC7CC(CC(C7)C5)C6)C(C)C)[nH]4)cc3)cc2)[nH]1 [Compound P-57] | >100
COc1ccccc1C(O)C(C)(C)C(=O)N[C@H](c1nc(-c2ccc(-c3ccc(-c4c[nH]c([C@@H](NC(=O)C(C)(C)C(O)c5ccccc5OC)C(C)(C)C)n4)cc3)cc2)c[nH]1)C(C)(C)C (single isomer, unassigned) [Compound N-125A] | >100
CCN(CC(F)(F)F)C(=O)C(=O)N[C@H](c1nc(-c2ccc(-c3ccc(-c4c[nH]c([C@@H](NC(=O)C(=O)N(CC)CC(F)(F)F)C(C)(C)C)n4)cc3)cc2)c[nH]1)C(C)(C)C [Compound W-37] | >100
CCN(CC)C(=O)C(=O)N[C@H](c1nc(-c2ccc(-c3ccc(-c4c[nH]c([C@@H](NC(=O)C(=O)N(CC)CC)C(C)(C)C)n4)cc3)cc2)c[nH]1)C(C)(C)C [Compound W-33] | >100
CC(C)CC(=O)N1[C@@H]2C[C@@H]2C[C@H]1c1nc(-c2ccc(-c3ccc(-c4c[nH]c([C@@H]5C[C@H]6C[C@H]6N5C(=O)CC(C)C)n4)cc3)cc2)c[nH]1 [Compound P-50] | <10
CC(C)[C@H](NC(=O)C(C)(C)OCCF)c1ncc(-c2ccc(-c3ccc(-c4cnc([C@@H](NC(=O)C(C)(C)OCCF)C(C)C)[nH]4)cc3)cc2)[nH]1 [Compound Y-32] | >100
COC(=O)NC(C(=O)NC(c1ncc(-c2ccc(-c3ccc(-c4cnc(C5CCCN5C(=O)C(NC(=O)OC)C(C)C)[nH]4)cc3)cc2)[nH]1)C(C)(C)C)C(C)C (stereo not drawn) [Compound B-196] | >10
CC(C)[C@H](NC(=O)C1(c2ccc(Cl)cc2)CCCC1)c1ncc(-c2ccc(-c3ccc(-c4cnc([C@@H](NC(=O)C5(c6ccc(Cl)cc6)CCCC5)C(C)C)[nH]4)cc3)cc2)[nH]1 [Compound S-2] | >100
CC(C)[C@H](NC(=O)[C@@]1(C)CCC(F)(F)CO1)c1nc(-c2ccc(-c3ccc(-c4c[nH]c([C@@H](NC(=O)[C@@]5(C)CCC(F)(F)CO5)C(C)C)n4)cc3F)cc2)c[nH]1 [Compound N-133] | >100
CC(C)(CO)C(=O)NC(c1nc(-c2ccc(-c3ccc(-c4c[nH]c(C(NC(=O)C(C)(C)CO)C(C)(C)C)n4)cc3)cc2)c[nH]1)C(C)(C)C [Compound L-56] | >100
CC(C)(C)[C@H](NC(=O)Cc1ccccc1OC(F)(F)F)c1nc(-c2ccc(-c3ccc(-c4c[nH]c([C@@H](NC(=O)Cc5ccccc5OC(F)(F)F)C(C)(C)C)n4)cc3)cc2)c[nH]1 [Compound Y-73] | >100
CC(C)(C)[C@H](NC(=O)C1(c2ccc(Cl)cc2)CC1)c1nc(-c2ccc(-c3ccc(-c4c[nH]c([C@@H](NC(=O)C5(c6ccc(Cl)cc6)CC5)C(C)(C)C)n4)cc3)cc2)c[nH]1 [Compound N-56] | >100
COC(C)(CCO)C(=O)N[C@H](c1nc(-c2ccc(-c3ccc(-c4c[nH]c([C@@H](NC(=O)C(C)(CCO)OC)C(C)(C)C)n4)cc3)cc2)c[nH]1)C(C)(C)C (single isomer, unassigned) [Compound W-257] | >100
CC(C)[C@H](NC(=O)Cc1ccccc1F)c1ncc(-c2ccc(-c3ccc(-c4cnc([C@@H](NC(=O)Cc5ccccc5F)C(C)C)[nH]4)cc3)cc2)[nH]1 [Compound S-37] | >100
CC(C)(C)C(NC(=O)C1(NC(=O)C2CC2(F)F)CCCCC1)c1nc(-c2ccc(-c3ccc(-c4c[nH]c(C(NC(=O)C5(NC(=O)C6CC6(F)F)CCCCC5)C(C)(C)C)n4)cc3)cc2)c[nH]1 (mixture of isomers) [Compound W-277] | >100
CC(C)(C)[C@H](NC(=O)C(C)(C)C1(O)CCC(F)(F)CC1)c1ncc(C#Cc2ccc3cc(-c4cnc([C@@H](NC(=O)C(C)(C)C5(O)CCC(F)(F)CC5)C(C)(C)C)[nH]4)ccc3c2)[nH]1 [Compound B5A] | >100
CC(C)(C)[C@H](NC(=O)C1CC12CCOCC2)c1ncc(-c2ccc(-c3ccc(-c4cnc([C@@H](NC(=O)C5CC56CCOCC6)C(C)(C)C)[nH]4)cc3)cc2)[nH]1 (single isomer, unassigned) [Compound B71] | >100
COC(=O)C1(C(=O)N[C@H](c2nc(-c3ccc(-c4ccc(-c5c[nH]c([C@@H](NC(=O)C6(C(=O)OC)CC6)C(C)(C)C)n5)cc4)cc3)c[nH]2)C(C)(C)C)CC1 [Compound W-124] | >100

SMILES | Fold-Synergistic 1a (Q30E) [fold]
CC(C)(C)C(=O)N[C@H](c1ncc(-c2ccc(-c3cc4ccc(-c5cnc([C@@H](NC(=O)C(C)(C)C)C(C)(C)C)[nH]5)cc4o3)cc2)[nH]1)C(C)(C)C.O=C(O)C(F)(F)F [Compound B62] | >10
CC(C)(C(=O)N[C@H](c1nc(-c2ccc(-c3ccc(-c4c[nH]c([C@@H](NC(=O)C(C)(C)C(=O)N5CCOCC5)C(C)(C)C)n4)cc3)cc2)c[nH]1)C(C)(C)C)C(=O)N1CCOCC1 [Compound W-135] | >10
CC(C)(C)[C@H](NC(=O)C1CCOC1)c1nc(-c2ccc(-c3ccc(-c4c[nH]c([C@@H](NC(=O)C5CCOC5)C(C)(C)C)n4)cc3)cc2)c[nH]1 (stereo partly drawn) [Compound W-129] | >10
CC(C)(C)[C@H](NC(=O)[C@@H]1C[C@@H](F)CN1)c1nc(-c2ccc(-c3ccc(-c4c[nH]c([C@@H](NC(=O)[C@@H]5C[C@@H](F)CN5)C(C)(C)C)n4)cc3)cc2)c[nH]1 [Compound W-101, (2S,2'S,4R,4′R)—N,N′-((1S,1′S)-(4,4′-([1,1′-biphenyl]-4,4′-diyl)bis(1H-imidazole-4,2-diyl))bis(2,2-dimethylpropane-1,1-diyl))bis(4-fluoropyrrolidine-2-carboxamide)] | >10
COC(C)(C)C(=O)N[C@H](c1ncc(-c2ccc(-c3ccc(-c4cnc([C@@H](NC(=O)C(C)(C)OC)C(C)C)[nH]4)cc3)cc2)[nH]1)C(C)C [Compound P-69] | >100
CC(C)(C)C(NC(=O)C(C)(C)C1CCC(F)(F)CO1)c1nc(-c2ccc(-c3ccc(-c4c[nH]c(C(NC(=O)C(C)(C)C5CCC(F)(F)CO5)C(C)(C)C)n4)cc3)cc2)c[nH]1 (mixture of isomers) [Compound P-155] | >100
CCOC(=O)N[C@@H](C(=O)N[C@H](c1ncc(-c2ccc(-c3ccc(-c4cnc([C@@H](NC(=O)[C@H](NC(=O)OCC)C(C)C)C(C)C)[nH]4)cc3)cc2)[nH]1)C(C)C)C(C)C [Compound S-247] | >100
CC(CO)(OCCF)C(=O)N[C@H](c1nc(-c2ccc(-c3ccc(-c4c[nH]c([C@@H](NC(=O)C(C)(CO)OCCF)C(C)(C)C)n4)cc3)cc2)c[nH]1)C(C)(C)C (single isomer, unassigned) [Compound W-271] | >100
CC(C)[C@H](NC(=O)C(=O)C1(C)CCC(F)(F)CC1)c1ncc(-c2ccc(-c3ccc(-c4cnc([C@@H](NC(=O)C(=O)C5(C)CCC(F)(F)CC5)C(C)C)[nH]4)cc3)cc2)[nH]1 [Compound P-112] | >100
CC(C)(C(=O)N[C@H](c1nc(-c2ccc(-c3ccc(-c4c[nH]c([C@@H](NC(=O)C(C)(C)C(O)C5CC(F)(F)C5)C(C)(C)C)n4)cc3)cc2)c[nH]1)C(C)(C)C)C(O)C1CC(F)(F)C1 (single isomer, unassigned) [Compound N-144C] | >100
COc1ncccc1C(=O)N[C@H](c1ncc(-c2ccc(-c3ccc(-c4cnc([C@@H](NC(=O)c5cccnc5OC)C(C)C)[nH]4)cc3)cc2)[nH]1)C(C)C [Compound S-52] | >100
COC(=O)N[C@@H](C(=O)N[C@H](c1ncc(-c2ccc(-c3ccc(-c4cnc([C@@H](NC(=O)[C@H](NC(=O)OC)C5CC5)C(C)C)[nH]4)cc3)cc2)[nH]1)C(C)C)C1CC1 [Compound P-102] | >10
CC(C)(C)[C@H](NC(=O)C(C)(C)C1(O)CCCCC1)c1nc(-c2ccc(-c3ccc(-c4c[nH]c([C@@H](NC(=O)C(C)(C)C5(O)CCCCC5)C(C)(C)C)n4)cc3)cc2)c[nH]1 [Compound P-160] | >100
CC(C)[C@H](NC(=O)c1cc(Cl)cc(Cl)c1)c1ncc(-c2ccc(-c3ccc(-c4cnc([C@@H](NC(=O)c5cc(Cl)cc(Cl)c5)C(C)C)[nH]4)cc3)cc2)[nH]1 [Compound S-76] | >100
COC(=O)NC(C)(C)C(=O)N[C@H](c1nc(-c2ccc(-c3ccc(-c4c[nH]c([C@@H](NC(=O)C(C)(C)NC(=O)OC)C(C)(C)C)n4)cc3)cc2)c[nH]1)C(C)(C)C [Compound Q-1] | >100
CC(C)(C)[C@H](NC(=O)[C@@]1(N)C[C@@H]1c1ccccc1)c1nc(-c2ccc(-c3ccc(-c4c[nH]c([C@@H](NC(=O)[C@@]5(N)C[C@@H]5c5ccccc5)C(C)(C)C)n4)cc3)cc2)c[nH]1 [Compound W-41] | >100
CC1(C)CC(C(=O)N[C@H](c2nc(-c3ccc(-c4ccc(-c5c[nH]c([C@@H](NC(=O)C6CCOC(C)(C)C6)C(C)(C)C)n5)cc4)cc3)c[nH]2)C(C)(C)C)CCO1 (stereo partly drawn) [Compound W-122] | >100
O=C(NC(c1nc(-c2ccc(-c3ccc(-c4c[nH]c(C(NC(=O)C(=O)N5CCC(F)(F)CC5)C5CC5)n4)cc3)cc2)c[nH]1)C1CC1)C(=O)N1CCC(F)(F)CC1 [Compound L-37] | >100
CC(C)(C)[C@H](NC(=O)C1CCC(=O)CC1)c1nc(-c2ccc(-c3ccc(-c4c[nH]c([C@@H](NC(=O)C5CCC(=O)CC5)C(C)(C)C)n4)cc3)cc2)c[nH]1 [Compound W-173] | >100
